According to patent publication US11415513B2, “Method for determining the degree of sensitivity of a strain of fungus to an antifungal agent” (UNIVERSITE GRENOBLE ALPES, priority 2015, dated 2022):
≈ marks a conversion by molar mass, not a printed value.

Legend:
[1] = system: strain SC5314 of C. albicans; assay: Sensitivity test by HCA microscopy (chitin level, Calcofluor White; cell count); type: cell-based, Candida albicans; details: 6.5 h at 30° C., SC medium; for decrease of the number of cells / increase of the chitin level in the wall of the cells: vs cells in the absence of antifungal agent, concentration gradient of Table 1
Protocol: (§1) The strains of Candida were incubated beforehand at 30° C. overnight in a yeast extract medium—peptone dextrose (YPD) (1% bacto peptone, 0.5% yeast extract, 2% glucose, 1.5% agar).
Yeast colonies were then removed from YPD medium plates and suspended in a 0.9% NaCl saline solution, in which the cell concentration was estimated by optical microscopy using Kova counting slides.
A dilution was performed to obtain 15 ml of an inoculum at 3×10^6 CFU/ml, in a synthetic complete (SC) medium at pH 7 (2% glucose, 0.5% ammonium sulfate, 0.17% nitrogen-containing yeast base, 0.2% synthetic complete mixture, and 10% HEPES 1.5M pH 7.2) for C. albicans, C. parapsilosis, C. tropicalis and C. krusei, and in a solution of RPMI 1640 pH 7.3 (10% HEPES 1M pH 7.2) for C. glabrata, so as to reduce the formation of septa and clusters.
1 ml of inoculum was then added to 2 ml of antifungal solution prepared in an SC or RPMI medium depending on the species of fungus, so as to obtain a final concentration of yeast of 10^6 CFU/ml and the desired concentration of antifungal agent according to table 1.
After homogenisation, the cultures were placed at 30° C. at 200 rpm, with the exception of cultures of C. glabrata, which were placed at 35° C. at 200 rpm, and incubated for a period of 6.5 h or 24 h.
After incubation, 100 μl of the culture of fungi obtained above were transferred in triplicate to 96-well plates, and 2.5 μl of Calcofluor White (CFW) were added to each well so as to mark the chitin of the cell walls of the yeasts.
(§2) A step of acquiring images by automated fluorescence microscopy (ScanR screening station, Olympus), using a 40× lens and a CFW filter, made it possible to obtain 30 images per well so as to capture enough cells to provide statistically significant data. These images were analysed by software (ScanR analysis software, Olympus). Firstly, the background noise was processed so as to improve the contrast between the fluorescence of the yeasts and background noise. A pixel threshold was then defined. Segmentation of the fluorescent elements present in each of the acquired images was then performed using an algorithm predefined in the software, making it possible to determine the limit of each element on the basis of the fluorescence intensity of said element. A size parameter was then applied to select the yeasts and eliminate the aggregates and the fluorescent debris.
Each element then corresponding to a yeast, it was thus possible, on the basis of these elements predefined beforehand, to define the fluorescence intensity for each of the yeasts, this intensity being directly correlated with the chitin content of their wall.
On the basis of said defined elements, it was also possible to automatically count the yeasts,
The strain SC5314 of C. albicans was cultivated as described in paragraph I of the Examples section so as to obtain an inoculum at 3×10^6 CFU/ml in 15 ml of SC medium.
2 ml of fluconazole solution prepared in the SC medium were then added to 1 ml of this inoculum so as to obtain a final concentration of yeast of 10^6 CFU/ml and of 16 μg/ml in fluconazole.
The inoculum was treated in the same way so as to obtain cultures of 10^6 CFU/ml and the following concentrations of fluconazole: 0.015 μg/ml, 0.031 μg/ml, 0.062 μg/ml, 0.125 μg/ml, 0.25 μg/ml, 0.5 μg/ml, 1 μg/ml, 2 μg/ml, 4 μg/ml, 8 μg/ml, 16 μg/ml.
After incubation for 6.5 h at 30° C. with stirring at 200 rpm, 100 μl of each culture were removed and transferred to 96-well plates. This procedure was performed in triplicate, and 2.5 μl of CFW were then added to each well.
The chitin level in the cell wall of the yeasts was then measured by […] analysis (HCA) microscopy, as described in paragraph II of the Examples section, in triplicate for each condition of concentration of fluconazole and without fluconazole.

[2] = system: strain DSY296 of C. albicans; assay: Sensitivity test by HCA microscopy (chitin level, Calcofluor White); type: cell-based, Candida albicans; details: vs cells in the absence of antifungal agent; 6.5 h at 30° C., SC medium; concentration gradient of Table 1
Protocol: as §1
Yeast colonies were then removed from YPD medium plates and suspended in a 0.9% NaCl saline solution, in which the cell concentration was estimated by optical microscopy using Kova counting slides. […]
as §2, with “A pixel threshold was then defined.” left out, “A size parameter was then applied to select the yeasts and eliminate the aggregates and the fluorescent debris.” left out
Each element then corresponding to a yeast, it was thus possible, on the basis of these elements predefined beforehand, to define the fluorescence intensity for each of the yeasts, this intensity being directly correlated with the chitin content of their wall. […]

[3] = system: strain 8/21 of C. parapsilosis; assay: Etest method (MIC); type: cell-based, Candida parapsilosis; details: RPMI medium plates, 24 h at 35° C.; for MIC: Lodderomyces parapsilosis
Protocol: The Etest® method is a commercial test for determining the sensitivity of a strain, most frequently used routinely in clinical mycology laboratories.
The Etest® tests were performed according to the manufacturer's instructions. After distributing a standardised Mac Farland 0.5 inoculum (equivalent of […]) over plates of RPMI medium, said plates were incubated for 24 h at 35° C., with the exception of C. glabrata in which case the incubation was extended to 48 h so as to be able to determine the minimum inhibitory concentration (MIC).
The results of the MICs obtained were interpreted in accordance with the tables of the CLSI (Clinical and Laboratory Standards Institute) and/or of EUCAST (European Committee on Antimicrobial Susceptibility Testing) (Arendrup M C, Cuenca-Estrella M, Lass-Flörl C, Hope W W (2014) Breakpoints for antifungal agents: an update from EUCAST focussing on echinocandins against Candida spp and triazoles against Aspergillus spp. Drug Resist Updat 16(6):81-95. doi:10.1016/j.drup.2014.01.001) (cf. Table 2 taken from Maubon D, Garnaud C, Calandra T, et al. (2014) Resistance of Candida spp. to antifungal drugs in the ICU: where are we now? Intensive Care Med. doi: 10.1007/s00134-014-3404-7) which list the clinical thresholds (CBPs) for the most common species of yeast of the genus Candida as a function of different antifungal agents, or according to the table of epidemiological thresholds (ECVs).

| Compound | phenotype of the strain with respect to the antifungal agent (HCA) [1] | decrease of the number of cells [1] | increase of the chitin level in the wall of the cells [1] | decrease in the chitin level in the wall of the cells [2] | MIC [3] [µg/mL] | phenotype by Etest MIC, interpretation by the EUCAST and CLSI tables [3] |
| --- | --- | --- | --- | --- | --- | --- |
| OC(Cn1cncn1)(Cn1cncn1)c1ccc(F)cc1F [fluconazole] | sensitive (an increase in the chitin level greater than or equal to 20% is observed compared to the chitin level of a population of cells of said fungus in the absence of antifungal agent, as well as a decrease in the number of cells of at least 0.3 log) | at least 0.3 log | greater than or equal to 20% | less than 20% | 8 (≈ 26.1 µM) | resistant |
| C[C@@H](c1ncncc1F)[C@](O)(Cn1cncn1)c1ccc(F)cc1F [voriconazole] | sensitive (an increase in the chitin level greater than or equal to 20% is observed compared to the chitin level of a population of cells of said fungus in the absence of antifungal agent, as well as a decrease in the number of cells of at least 0.3 log) | at least 0.3 log | greater than or equal to 20% | less than 20% | 4 (≈ 11.5 µM) | resistant |
